ChEMBL document CHEMBL1150580, “Microsphaerones A and B, two novel gamma-pyrone derivatives from the sponge-derived fungus Microsphaeropsis sp” (J Nat Prod, 2002)
Calls of active or inactive are those of the source. The calls are words filed in the database; no cut-off is given here.

Experiments:
Spodoptera littoralis = experiment: Insecticidal activity against Spodoptera littoralis larvae; type: functional, organism-based
Artemia salina = experiment: Toxicity to Artemia salina; type: organism-based; conditions: in vivo

Structure (SMILES): C[C@@H](CC(=O)NC(=O)c1coc(/C=C/C=C/CCCCCCC(=O)O)cc1=O)C(=O)O [MICROSPHAERONE A]
- Activity (Spodoptera littoralis): inactive
- Activity (Artemia salina): Non-toxic

Structure (SMILES): NC(=O)c1coc(/C=C/C=C/CCCCCCC(=O)O)cc1=O [MICROSPHAERONE B]
- Activity (Spodoptera littoralis): inactive
- Activity (Artemia salina): Non-toxic
